Here are results for 1 molecule from US20250288573A1 (H. LEE MOFFITT CANCER CENTER AND RESEARCH INSTITUTE, INC., priority 2018, published 2025).

The target in series [1] is T1, cereblon (CRBN) (Homo sapiens, UniProt Q96SW2). Put plainly: Kd and % inhibition from FI. The class given is binding.
For series [2], the system named is T cells expanded from patients with melanoma. Put plainly: Cytokine assays (IL-2, IFN-γ) in T cells expanded from patients with melanoma. It counts as cell-based, human. An excerpt: Veh=vehicle-treated cells DMSO 0.1%
Series [3] addresses T2, CRBN (Homo sapiens, UniProt Q96SW2).
T2 construct: endogenous in cells; host or cells: primary human T cells / CD8+ T cells from peripheral blood
Nature of the series: Western blot for expression of CRBN relative to vinculin in human T cells (CRBN degradation). It counts as cell-based. An excerpt: Bortez=bortezomib; MG132=proteasome inhibitor; MLN4924=NEDD8 inhibitor.
This assay is a standard Western blot assay for expression of CRBN relative to vinculin.
[…] 0.1 percent DMSO was used as a vehicle control.
(In general: In western blotting, separated proteins are transferred to a membrane and probed.)

Series [4] concerns the target T3, cereblon (Mus musculus, UniProt Q8C7D2).
T3 construct: from tissue; host or cells: spleen: purified splenic T cells and total splenocytes of treated mice
T3 sequence (Q8C7D2 1-445): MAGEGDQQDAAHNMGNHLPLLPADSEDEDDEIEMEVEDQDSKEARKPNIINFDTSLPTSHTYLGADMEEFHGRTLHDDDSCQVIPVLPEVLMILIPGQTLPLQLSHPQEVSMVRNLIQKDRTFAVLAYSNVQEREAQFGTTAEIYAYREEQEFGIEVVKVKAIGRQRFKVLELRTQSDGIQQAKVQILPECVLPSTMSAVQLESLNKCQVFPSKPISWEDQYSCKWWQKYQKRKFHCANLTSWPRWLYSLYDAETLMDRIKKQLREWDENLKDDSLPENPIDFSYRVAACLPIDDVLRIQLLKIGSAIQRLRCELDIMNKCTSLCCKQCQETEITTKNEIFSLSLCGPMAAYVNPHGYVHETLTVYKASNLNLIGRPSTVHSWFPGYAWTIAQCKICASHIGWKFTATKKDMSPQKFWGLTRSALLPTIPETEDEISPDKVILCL
Put plainly: Western blot of cereblon in splenic T cells / splenocytes of mice treated orally with a single dose. The class given is in vivo. To be noted: single oral dose of 75 mg/kg. The procedure:
FIG. 24 is a graph of results from Western blots from purified splenic T cells of mice treated orally with a single dose of 75 mg/kg SM2-145. Three mice were obtained from each time point (1, 6, 12, and 24 hrs) after treatment.
FIG. 25 contains a Western blot analysis of purified T cells from mice treated orally with a single dose of 75 mg/kg EC2-035 and EC2-134.

The nature of series [5]: Pharmacokinetic studies. The conditions noted are these: in vivo.
Series [6] deals with T4, cereblon (CRBN) (Mus musculus, UniProt Q8C7D2).
T4 construct: endogenous in cells; host or cells: mouse CD8+ T cells
T4 sequence (Q8C7D2 1-445): T3 sequence (Q8C7D2 1-445)
Put plainly: Western blot of cereblon (CRBN) levels in mouse CD8+ T cells. To be noted: 24 hours of treatment. The class given is cell-based.

Series [7] concerns the target T1, cereblon (CRBN). Put plainly: Kd from ITC. The class given is binding.

SMILES strings stand for the structures.

T1 sequence (Q96SW2 whole entry, species assumed): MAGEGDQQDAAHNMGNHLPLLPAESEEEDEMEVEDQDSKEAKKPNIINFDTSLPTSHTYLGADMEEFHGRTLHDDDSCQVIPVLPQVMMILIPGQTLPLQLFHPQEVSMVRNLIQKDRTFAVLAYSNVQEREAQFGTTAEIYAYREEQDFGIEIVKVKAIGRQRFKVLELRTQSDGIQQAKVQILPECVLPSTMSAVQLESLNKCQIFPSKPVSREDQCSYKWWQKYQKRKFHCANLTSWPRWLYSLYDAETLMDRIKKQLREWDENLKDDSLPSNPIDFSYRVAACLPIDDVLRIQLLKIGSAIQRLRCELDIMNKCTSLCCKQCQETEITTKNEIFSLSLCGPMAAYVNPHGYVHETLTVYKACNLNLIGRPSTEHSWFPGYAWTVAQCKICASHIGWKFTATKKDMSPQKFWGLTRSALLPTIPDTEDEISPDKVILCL
T2 sequence (Q96SW2 whole entry): as the sequence (Q96SW2 whole entry, species assumed) above

As usually defined, the Kd is the constant that tells how readily two partners part at equilibrium. Usually inhibition stands for the percentage by which the read-out fell short of the control. On to `O=C1CCC(N2Cc3c(CCCOCCOCCCc4cccc5c4CN(C4CCC(=O)NC4=O)C5=O)cccc3C2=O)C(=O)N1` (stereo not drawn) [SM2-145, 3,3′-(((Ethane-1,2-diylbis(oxy))bis(propane-3,1-diyl))bis(1-oxoisoindoline-4,2-diyl))bis(piperidine-2,6-dione)], for which the Kd in series [1] (FI, read-out: Kd (FI) (converted)) is 6.59 ± 1.57 µM; in series [7], 6.6 ± 0.8 µM. Also, the inhibition at 200 µM in series [1] (read-out: % inhibition @ 200 uM from *FI) turned out to be 70.19 ± 0.28%. In addition, the “T cell function (IL-2 and IFN-γ after anti-CD3 (OKT3) activation)” value in series [2] is recorded as “actively increasing T cell function”. The remaining activity at 10 µM in series [3] (10uM, read-out: Relative Density of CRBN (% of DMSO)) came to 7.21%. For the same molecule, the remaining activity at 0.01 µM in series [3] (24 h, 10nM, human T cells, 24 hours, read-out: Relative Density of CRBN (% of DMSO)) was found to be 21%. Further, the “specificity for CRBN degradation over Ikaros” value in series [3] (human T cells, 24 hours) is “Specificity is shown for CRBN degradation over Ikaros”. Also, in series [3] (human T cells, 24 hours of treatment), the “intracellular cereblon levels (Western blot)” value is on record as “reduced intracellular cereblon levels”. Further, in series [3] (human T cells, 24 hours, read-out: DC50 (concentration leading to 50% degradation of cereblon)), the DC50 stood at 0.00288 µM. The “cereblon levels in purified splenic T cells” value in series [4] is recorded as “partial reduction in cereblon levels at 6 hours”. Besides, in series [5], the “stability in pharmacokinetic studies” value is given as “Poor stability”. Besides, the “cereblon (CRBN) levels (Western blot)” value in series [6] is “reduced cereblon (CRBN) levels”.
